Tests used:
human KDELR1 E117A = molecular target: T1, human KDELR1 E117A (Homo sapiens, UniProt P24390, E117A); experiment: ER retrieval assay, KDELR1 E117A-GFP; assay type: cell-based; settings: COS-7 cells
T1 construct: expressed in transfected cells; host or cells: COS-7
Text: (§1) To create KDELR1-GFP and KDELR2-GFP, the reading frames for Homo sapiens KDELR1 (Uniprot: P24390) and KDELR2 (Uniprot: P33947) were cloned into the pEF5/FRT low level mammalian expression vector with a C-terminal 20 amino acid linker made up of 5 copies of Gly-Ser-Ser-Ser followed by GFP. Specific point mutations were introduced using the Quickchange protocol (Stratagene) and are described in the key resources table and figures. To create the mScarlet-KDEL^sec ligand construct, mScarlet with an N-terminal hGH signal peptide and the 16 C-terminal residues of human BiP at its C-terminus, containing the KDEL signal, was cloned into the pcDNA3.1 vector. […] The Golgi marker protein TGN46 was detected by antibody (sheep anti-TGN46 AHP500G; AbD Serotec) and an Alexa 647 conjugated secondary anti-sheep secondary (A-21448, Invitrogen). In Figure 1d and e, endogenous KDELR was detected by antibody (mouse anti-KDELR ADI-VAA-PT048; Enzo Life Sciences) and Alexa 488 conjugated anti-mouse secondary antibody (A-21202, Invitrogen). For retrieval assays in other figures, KDELR-GFP fusion proteins were directly detected by fluorescence. The mScarlet-xDEL fusion proteins were directly detected by fluorescence. […] The fraction of KDEL receptor in the Golgi apparatus was calculated by dividing the Golgi signal by the total cell signal. […]

[1] = molecular target: T2, human KDELR1 D50N/N54K/E117Q/W120A (Homo sapiens, UniProt P24390, D50N/E117Q/N54K/W120A); experiment: ER retrieval assay, KDELR1 D50N/N54K/E117Q/W120A-GFP; assay type: cell-based; settings: COS-7 cells
T2 construct: expressed in transfected cells; host or cells: COS-7
T2 sequence (P24390 whole entry D50N/N54K/E117Q/W120A): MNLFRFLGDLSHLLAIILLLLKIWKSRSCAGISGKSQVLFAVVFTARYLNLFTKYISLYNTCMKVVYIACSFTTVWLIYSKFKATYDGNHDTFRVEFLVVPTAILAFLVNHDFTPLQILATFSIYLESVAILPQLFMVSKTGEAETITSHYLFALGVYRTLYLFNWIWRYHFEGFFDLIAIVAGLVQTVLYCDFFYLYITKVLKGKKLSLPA
Text: as §1

T1 sequence (P24390 whole entry E117A): as the sequence (P24390 whole entry D50N/N54K/E117Q/W120A) above, with N50D, K54N, Q117A, A120W counted along it

ligand-induced receptor retrieval to the ER (in words) (human KDELR1 E117A): relocated to the ER
Substance: ADEL [pcDNA3.1 hGHss-mScarlet-H. sapiens BiP639-654K651A (ADEL^SEC), secreted mScarlet fusion with human BiP C-terminus, ADEL signal]
ligand-induced receptor retrieval to the ER (in words) [1]: does not relocate from the Golgi to the ER

Source: publication PMC8248988, “A signal capture and proofreading mechanism for the KDEL-receptor explains selectivity and dynamic range in ER retrieval” (eLife, 2021)
